For this assay, the target named is T1, chlamydial PDF (cPDF), peptide deformylase.
T1 construct: gene def; C-terminal His6 tag (pET21), expressed in ArcticExpress E. coli, purified on TALON resin
In words: TNBSA end-point deformylation assay (A335), Lineweaver-Burk. The class given is biochemical, Chlamydia trachomatis. As to conditions: fMAS substrate; 50 mM HEPES pH 7.2, 10 mM NaCl, 37 °C, 10 min; mode not stated; read-out: Wild-type. An excerpt: TNBSA end-point deformylation assay (A335), Lineweaver-Burk on chlamydial PDF (cPDF), peptide deformylase

Molecules are shown by their SMILES.

Regarding `CNC(=O)[C@H](Cc1c[nH]c2ccccc12)NC(=O)[C@@H](CC(=O)NO)CC(C)C` [GM6001, N-[(2R)-2-(hydroxamidocarbonylmethyl)-4-methylpentanoyl]-L-tryptophan methylamide], the Ki came out at 160 ± 35 nM.

Values taken from article PMC3352175, “Non-coding nucleotides and amino acids near the active site regulate peptide deformylase expression and inhibitor susceptibility in Chlamydia trachomatis” (Microbiology, 2011).
